In patent US8093265B2, “Bicycloheteroaryl compounds as P2X7 modulators and uses thereof” (Renovis, Inc., priority 2007, dated 2012):

How the values were obtained:
[1] = target: T1, P2X7 receptor (Homo sapiens, UniProt Q99572); experiment: IL-1β release assay in differentiated THP-1 cells (Example 9); format: cell-based; conditions: THP-1 cells differentiated with LPS and IFN-γ; 30 min pretreatment; BzATP 250 uM; IL-1β by ELISA
T1 construct: host or cells: THP-1 cells differentiated with LPS and IFN-γ
T1 sequence (Q99572 1-595): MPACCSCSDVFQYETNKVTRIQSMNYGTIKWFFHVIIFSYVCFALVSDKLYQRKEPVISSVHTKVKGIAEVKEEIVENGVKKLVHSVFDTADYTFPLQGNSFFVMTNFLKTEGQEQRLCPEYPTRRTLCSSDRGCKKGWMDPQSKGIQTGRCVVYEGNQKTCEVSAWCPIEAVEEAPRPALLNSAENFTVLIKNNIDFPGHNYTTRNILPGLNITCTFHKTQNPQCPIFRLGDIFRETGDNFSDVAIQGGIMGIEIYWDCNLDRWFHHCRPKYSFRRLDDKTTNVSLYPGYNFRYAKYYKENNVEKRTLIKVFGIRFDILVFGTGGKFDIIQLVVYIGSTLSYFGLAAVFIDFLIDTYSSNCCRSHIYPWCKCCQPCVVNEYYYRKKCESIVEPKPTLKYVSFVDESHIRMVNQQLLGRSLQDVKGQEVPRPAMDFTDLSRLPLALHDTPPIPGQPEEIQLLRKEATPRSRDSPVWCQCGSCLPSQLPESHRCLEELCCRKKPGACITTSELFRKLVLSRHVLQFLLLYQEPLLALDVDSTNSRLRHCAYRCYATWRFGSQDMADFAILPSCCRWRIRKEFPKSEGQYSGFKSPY
Method: THP-1 cells (ATCC Cat #285-IF-100) are plated in 96 well plates at a concentration of 200,000 cells per well and allowed to differentiate in RPMI-1640 media (ATCC Cat #30-2001) containing 10% FBS, 100 IU/mL penicillin, 100 ug/mL streptomycin, 100 ng/mL LPS and 100 ng/mL IFN-γ for 16 hours. Following differentiation, the cells are treated for an additional 2 hours in RPMI-1640 media containing 100 IU/mL penicillin, 100 ug/mL streptomycin and fresh LPS at 100 ng/mL. The cells are then pretreated for 30 minutes with the compound of interest at the appropriate concentration in RPMI media containing 100 IU/mL penicillin, 100 ug/mL streptomycin. Following the pretreatment 2′,3′-O-(4-benzoylbenzoyl)-adenosine 5′-triphosphate (Sigma Aldrich Cat # B6396) is added to a final concentration of 250 uM, and the cells are incubated for an additional 45 minutes. 30 uL of cell supernatant is then collected and IL-1β levels are determined via ELISA (R&D systems Cat. # HSLB50) according to manufacturer's recommendations using a Tecan Safire plate reader. Background adjusted IL-1β levels of drug treated and non-treated cells are used to calculate the percent inhibition.
The following compounds have been or can be prepared according to the synthetic methods described herein for example, methods A-AA1. The compounds set forth in Table 1 were tested for activity in a cellular model as described herein. Specifically, cells were pretreated with differing amounts of the compound under test and released IL-1β determined as in Example 9, above. Measurements were made and IC50 values, presented in Table 1, below, were determined by fitting the data to a four parameter logistic equation using GraphPad Prism software (GraphPad Software, Inc). The equation may be expressed by the following formula: Y=Bottom+(Top−Bottom)/(1+10^((Log EC50−X)*HillSlope)) where X is the logarithm of concentration, Y is the response and Y starts at Bottom and goes to Top with a sigmoid shape.

[2] = Plasma protein binding by equilibrium dialysis, human plasma; format: in vitro ADME; conditions: pH 7.4, equilibrium dialysis 16 hr at 37° C., % Bound
Method: The plasma protein binding of compounds of invention is measured in human and rat plasma, respectively. A stock solution of the tested compound is prepared in 1 mg/mL in DMSO solution. The stock solution is spiked into the blank plasma to get a final compound concentration at 1 μg/mL for testing. Equilibrium dialysis (The equilibrium dialyzer-96TM MWCO 5K Daltons, Harvard Apparatus) method is used for the testing purpose.
The compound spiked plasma (at […]) and phosphate buffer (0.1 M, pH 7.4), 200 μl each, are added into the opposite sides of the membrane in a 96-well equilibrium dialyzer, respectively. The dialyzer plate is covered and incubated overnight (16 hr) at 37° C. in the 8-plate rotor incubator (Big Shot III 8-plate rotor, Harvard Apparatus). Aliquots (100 μL) are taken from the plasma and the buffer compartments, respectively. The matrix effects are eliminated by adding the same volume of blank plasma into the samples from buffer compartments and adding the same volume of phosphate buffer into the samples from plasma compartments. The samples are extracted by using the regular (3:1) protein precipitation extraction procedure (acetonitrile with internal standard). The supernatants are taken for LC/MS/MS analysis. The percentage of plasma-protein binding can be calculated by using the following method: % Free=[Free Drug/Total Drug]*100=[(Peak Area)buffer/(Peak Area)plasma]*100 % Bound=100−% Free.
For the purpose of Table 4, the plasma protein binding of each compound is expressed as follows: […]

[3] = Half-life in human liver microsomes (HLM); format: in vitro ADME; conditions: human liver microsomes 0.78 mg/mL, 1 μM compound, NADPH, 37° C.; for half-life at 1 μM: pH 7.4
Method: Half-Life in Human Liver Microsomes (HLM)
Test compounds (1 μM) are incubated with 3.3 mM MgCl2 and 0.78 mg/mL HLM (HL101) in 100 mM potassium phosphate buffer (pH 7.4) at 37° C. on the 96-deep well plate. The reaction mixture is split into two groups, a non-P450 and a P450 group. NADPH is only added to the reaction mixture of the P450 group. An aliquot of samples of P450 group is collected at 0, 10, 30, and 60 min time point, where 0 min time point indicated the time when NADPH is added into the reaction mixture of P450 group. […] Collected aliquots are extracted with acetonitrile solution containing an internal standard. […] The compound concentration in supernatant is measured by LC/MS/MS system.
The half-life value is obtained by plotting the natural logarithm of the peak area ratio of compounds/internal standard versus time. The slope of the line of best fit through the points yields the rate of metabolism (k). This is converted to a half-life value using following equations: Half-life=ln 2/k

Row | SMILES | IC50 [1] | fraction unbound at 16 hr, 1 μg/mL [2] | half-life at 1 μM [3] | Half Life [3]
1 | Cc1ccc2c(=O)n([C@H](C)CN3CC(O)C3)ccc2c1NC(=O)Cc1ccc(C(F)(F)F)c(F)c1 [Compound 64, 2-(3-Fluoro-4-trifluoromethyl-phenyl)-N-{2-[(R)-2-(3-hydroxy-azetidin-1-yl)-1-methyl-ethyl]-6-methyl-1-oxo-1,2-dihydro-isoquinolin-5-yl}-acetamide] | 9 nM | 0.1 to 0.24 |  | 
2 | C[C@H](CO)n1ccc2c(NC(=O)Cc3ccc(Cl)c(F)c3)c(Cl)ccc2c1=O [Compound 15, 2-(4-Chloro-3-fluoro-phenyl)-N-[6-chloro-2-((R)-2-hydroxy-1-methyl-ethyl)-1-oxo-1,2-dihydro-isoquinolin-5-yl]-acetamide] | 6 nM |  |  | 1.3 h
3 | C[C@H](CO)n1ccc2c(C(=O)NCc3ccc(Cl)c(F)c3)c(Cl)ccc2c1=O [Compound 45, 6-Chloro-2-((R)-2-hydroxy-1-methyl-ethyl)-1-oxo-1,2-dihydro-isoquinoline-5-carboxylic acid 4-chloro-3-fluoro-benzylamide] | 13 nM |  | 1.6 h | 
4 | Cc1ccc2c(=O)n(C(CO)CO)ccc2c1NC(=O)Cc1ccc(C(F)(F)F)c(F)c1 [Compound 62, 2-(3-Fluoro-4-trifluoromethyl-phenyl)-N-[2-(2-hydroxy-1-hydroxymethyl-ethyl)-6-methyl-1-oxo-1,2-dihydro-isoquinolin-5-yl]-acetamide] | 30 nM |  |  | 
5 | Cc1ccc2c(=O)n([C@H](C)CO)ccc2c1NC(=O)CC1CCCCCC1 [Compound 32, 2-Cycloheptyl-N-[2-((R)-2-hydroxy-1-methyl-ethyl)-6-methyl-1-oxo-1,2-dihydro-isoquinolin-5-yl]-acetamide] | 9 nM |  |  | 
6 | C[C@H](CO)n1ccc2c(C(=O)NCC3CCC(F)(F)CC3)c(Cl)ccc2c1=O [Compound 61, (R)-6-Chloro-N-((4,4-difluorocyclohexyl)methyl)-2-(1-hydroxypropan-2-yl)-1-oxo-1,2-dihydroisoquinoline-5-carboxamide] | 5 nM | 0.1 to 0.24 |  | 
7 | C[C@H](C(N)=O)n1ccc2c(NC(=O)Cc3ccc(C(F)(F)F)cc3)c(Cl)ccc2c1=O [Compound 3, (R)-2-{6-Chloro-1-oxo-5-[2-(4-trifluoromethyl-phenyl)-acetylamino]-1H-isoquinolin-2-yl}-propionamide] | 2 nM |  |  | 3.3 h
8 | COc1ccc2c(=O)n([C@H](C)C(N)=O)ccc2c1NC(=O)Cc1ccc(C(F)(F)F)cc1 [Compound 7, (R)-2-{6-Methoxy-1-oxo-5-[2-(4-trifluoromethyl-phenyl)-acetylamino]-1H-isoquinolin-2-yl}-propionamide] | 48 nM |  |  | 
9 | C[C@H](CO)n1ccc2c(NC(=O)CC3CCCCCC3)c(Cl)ccc2c1=O [Compound 36, N-[6-Chloro-2-((R)-2-hydroxy-1-methyl-ethyl)-1-oxo-1,2-dihydro-isoquinolin-5-yl]-2-cycloheptyl-acetamide] | 4 nM |  |  | 
10 | Cc1ccc2c(=O)n([C@H](C)CN3CC[C@H](N)C3)ccc2c1NC(=O)Cc1ccc(C(F)(F)F)c(F)c1 [Compound 66] | 5 nM |  |  | 
11 | C[C@H](CO)n1ccc2c(C(=O)NCc3cccc(C(F)(F)F)c3)c(Cl)ccc2c1=O [Compound 44, 6-Chloro-2-((R)-2-hydroxy-1-methyl-ethyl)-1-oxo-1,2-dihydro-isoquinoline-5-carboxylic acid 3-trifluoromethyl-benzylamide] | 10 nM |  | 1.1 h | 
12 | Cc1ccc2c(=O)n([C@H](C)CO)ccc2c1NC(=O)CC12CC3CC(CC(C3)C1)C2 [Compound 31, 2-Adamantan-1-yl-N-[2-((R)-2-hydroxy-1-methyl-ethyl)-6-methyl-1-oxo-1,2-dihydro-isoquinolin-5-yl]-acetamide] | 5 nM |  |  | 

Now from value to molecule:

Row | IC50 [1] | fraction unbound at 16 hr, 1 μg/mL [2] | half-life at 1 μM [3] | Half Life [3] | SMILES
13 | 0.7 nM | < 0.1 |  |  | Cc1ccc2c(=O)n([C@H](C)CO)ccc2c1NC(=O)Cc1ccc(F)c(C(F)(F)F)c1 [Compound 22, 2-(4-Fluoro-3-trifluoromethyl-phenyl)-N-[2-((R)-2-hydroxy-1-methyl-ethyl)-6-methyl-1-oxo-1,2-dihydro-isoquinolin-5-yl]-acetamide]
14 | 1 nM |  | 0.3 h |  | C[C@H](CO)n1ccc2c(C(=O)NCC3(O)CCC(C)(C)CC3)c(Cl)ccc2c1=O [Compound 54, (R)-6-chloro-N-((1-hydroxy-4,4-dimethylcyclohexyl)methyl)-2-(1-hydroxypropan-2-yl)-1-oxo-1,2-dihydroisoquinoline-5-carboxamide]
15 | 0.8 nM |  | 0.4 h |  | C[C@H](CO)n1ccc2c(C(=O)NCC3(O)CCCCCC3)c(Cl)ccc2c1=O [Compound 47, 6-Chloro-2-((R)-2-hydroxy-1-methyl-ethyl)-1-oxo-1,2-dihydro-isoquinoline-5-carboxylic acid (1-hydroxy-cycloheptylmethyl)-amide]
16 | 0.6 nM | 0.25 to 0.49 |  |  | C[C@H](CO)n1ccc2c(C(=O)NCC3(O)CCC4(CC3)CC4)c(Cl)ccc2c1=O [Compound 63, 6-Chloro-2-((R)-1-hydroxypropan-2-yl)-N-((6-hydroxyspiro[2.5]octan-6-yl)methyl)-1-oxo-1,2-dihydroisoquinoline-5-carboxamide]
17 | 1 nM |  |  |  | C[C@H](CO)n1ccc2c(C(=O)NCC3(O)CCCC(C)(C)C3)c(Cl)ccc2c1=O (stereo partly drawn) [Compound 55, 6-Chloro-2-((R)-2-hydroxy-1-methyl-ethyl)-1-oxo-1,2-dihydro-isoquinoline-5-carboxylic acid(1-hydroxy-3,3-dimethyl-cyclohexylmethyl)-amide]
18 | 2 nM | 0.1 to 0.24 |  |  | Cc1ccc2c(=O)n([C@H](C)CN3CC[C@@H](N)C3)ccc2c1NC(=O)Cc1ccc(C(F)(F)F)c(F)c1 [Compound 67]
19 | 0.2 nM |  |  |  | C[C@H](CO)n1ccc2c(C(=O)NCC3CCCCCC3)c(Cl)ccc2c1=O [Compound 48, 6-Chloro-2-((R)-2-hydroxy-1-methyl-ethyl)-1-oxo-1,2-dihydro-isoquinoline-5-carboxylic acid cycloheptylmethyl-amide]
20 | 1 nM |  |  |  | C[C@H](CO)n1ccc2c(NC(=O)Cc3cccc(C(F)(F)F)c3)c(Cl)ccc2c1=O [Compound 39, N-[6-Chloro-2-((R)-2-hydroxy-1-methyl-ethyl)-1-oxo-1,2-dihydro-isoquinolin-5-yl]-2-(3-trifluoromethyl-phenyl)-acetamide]
21 | 1 nM |  |  |  | Cc1ccc2c(=O)n([C@H](C)CN3CCNCC3)ccc2c1NC(=O)Cc1ccc(C(F)(F)F)c(F)c1 [Compound 60, 2-(3-Fluoro-4-trifluoromethyl-phenyl)-N-[6-methyl-2-((R)-1-methyl-2-piperazin-1-yl-ethyl)-1-oxo-1,2-dihydro-isoquinolin-5-yl]-acetamide]
